Assay [1] addresses Thymidylate synthase (Escherichia coli, UniProt C3SWJ7). As to the kind of experiment: Inhibitory constant against thymidylate synthase from Escherichia coli.
Assay [2] deals with T1, Thymidylate synthase (Lactobacillus casei, UniProt P00469).
T1 sequence (P00469 whole entry): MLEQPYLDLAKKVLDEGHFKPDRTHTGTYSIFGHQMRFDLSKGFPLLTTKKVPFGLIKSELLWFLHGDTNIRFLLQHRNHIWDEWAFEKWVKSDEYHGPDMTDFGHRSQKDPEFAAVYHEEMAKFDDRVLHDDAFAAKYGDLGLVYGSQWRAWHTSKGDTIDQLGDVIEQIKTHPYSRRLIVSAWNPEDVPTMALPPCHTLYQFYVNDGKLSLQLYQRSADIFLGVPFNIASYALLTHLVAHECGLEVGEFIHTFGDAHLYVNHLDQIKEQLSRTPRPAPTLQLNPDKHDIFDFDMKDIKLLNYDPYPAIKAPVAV
In words: Inhibitory constant against thymidylate synthase from Lactobacillus casei. Details: species or system Lacticaseibacillus casei.

Thymidylate synthase (Escherichia coli, UniProt C3SWJ7), sequence (C3SWJ7 whole entry): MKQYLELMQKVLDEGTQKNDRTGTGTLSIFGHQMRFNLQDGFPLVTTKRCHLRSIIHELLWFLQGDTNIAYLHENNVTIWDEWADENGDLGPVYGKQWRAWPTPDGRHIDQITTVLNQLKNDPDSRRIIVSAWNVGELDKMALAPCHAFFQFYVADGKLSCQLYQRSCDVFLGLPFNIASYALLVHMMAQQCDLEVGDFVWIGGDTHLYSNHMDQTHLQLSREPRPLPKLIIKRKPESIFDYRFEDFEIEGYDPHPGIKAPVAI

In the case of `CN(C)c1cccc2c(S(=O)(=O)Oc3ccc(C[C@H](NS(=O)(=O)c4cc5nnoc5c5ccccc45)C(=O)O)cc3)cccc12`, the values for the Ki at Thymidylate synthase [1] and at Thymidylate synthase [2] were 15000 nM and 1600 nM, respectively.

Take `CN(C)c1cccc2c(S(=O)(=O)Oc3ccc(C[C@H](NS(=O)(=O)c4cccc5cc([N+](=O)[O-])ccc45)C(=O)O)cc3)cccc12`: the Ki on Thymidylate synthase [1] and on Thymidylate synthase [2] was 300 nM throughout.

For `CN(C)c1cccc2c(S(=O)(=O)Oc3ccc(C[C@H](NS(=O)(=O)c4cccc5c(NC(=O)OCc6ccccc6)cccc45)C(=O)O)cc3)cccc12`, the inhibition constant Ki was found to be 9400 nM at Thymidylate synthase [1] and 100 nM at Thymidylate synthase [2].

With `CN(C)c1cccc2c(S(=O)(=O)Oc3ccc(C[C@H](NS(=O)(=O)c4ccc(NC(=O)OCc5ccccc5)c5ccccc45)C(=O)O)cc3)cccc12`, the inhibitory constant (Ki) at Thymidylate synthase [1] came out at 1500 nM; on Thymidylate synthase [2] it was 1700 nM.

As for `CN(C)c1cccc2c(S(=O)(=O)N[C@@H](Cc3ccc(OS(=O)(=O)c4cccc5c(N(C)C)cccc45)cc3)C(=O)O)cccc12`, the figures for the Ki on Thymidylate synthase [1] and on Thymidylate synthase [2] were 1800 nM and 1400 nM, respectively.

`CN(C)c1cccc2c(S(=O)(=O)Oc3ccc(C[C@H](NS(=O)(=O)c4cccc5cc(N)ccc45)C(=O)O)cc3)cccc12`: the figures for the inhibitory constant (Ki) at Thymidylate synthase [1] and on Thymidylate synthase [2] were 300 nM and 500 nM, respectively.

One may read the Ki as a measure of affinity in units of concentration, obtained from inhibition or displacement.
